Measurements published in publication PMC10609173, “Antiplasmodial and Antileishmanial Activities of a New Limonoid and Other Constituents from the Stem Bark of Khaya senegalensis” (Molecules, 2023).
≈ marks a conversion by molar mass, not a printed value. Read-outs that look alike come from different tables or passages of the source.

Tests used:
[1] = test system: promastigote form of Leishmania donovani (1S(MHOM/SD/62/1S)); assay: Antileishmanial resazurin-based assay on promastigotes; type: cell-based; details: for IC50: Leishmania donovani, read-out: Antileishmanial Activity IC50 ± SD; for Antileishmanial Selectivity (SI): SI = CC50 against macrophages/IC50 against promastigotes
Description: A T-75 cm^2 cell culture flask was filled with complete Medium 199 [M199 supplemented with 10% heat-inactivated fetal bovine serum (HIFBS) and 100 IU/mL penicillin/streptomycin (Sigma, Darmstadt, Germany)] and used to grow the promastigote forms of Leishmania donovani. Every 72 h, flasks were subcultured and incubated at 28 °C.
The resazurin-based assay was used to evaluate the antileishmanial activity of the extract (100 μg/mL–0.16 μg/mL), major fractions (100 μg/mL–0.16 μg/mL), and isolated compounds (50 μg/mL–0.08 μg/mL) against the promastigote form of Leishmania donovani. Briefly, 10 μL of inhibitors at various triplicate doses (as prescribed for the antiplasmodial assay) were added to 90 μL of promastigotes from a logarithmic phase culture at a density of 4.10^5 parasites/mL. The plates were incubated for 28 h at 28 °C, and 10 μL of resazurin solution (Sigma, Darmstadt, Germany) was added. Amphotericin B (Sigma, Darmstadt, Germany) (10 μg–0.016 μg/mL) and 0.1% DMSO-treated wells were used as the […], respectively. After a further 44 h of incubation, plates were read using a Magelan Infinite M200 fluorescence plate reader (Tecan, Männedorf, Switzerland) at excitation and emission wavelengths of 530 and 590 nm, respectively.
(§1) The resulting fluorescence readings were used to calculate the growth inhibition percentages relative to the negative control for each sample and for each of the tested doses. GraphPad Prism 8.0 software was used to generate concentration-response curves from the nonlinear regression fit to determine the median inhibitory or cytotoxic concentration (IC50/CC50). The resistance index (RI) for antiplasmodial tests was calculated as the ratio between the samples’ IC50 values for the chloroquine-sensitive strain 3D7 and the multiresistant strain Dd2 [69]. Inhibitors with an RI value below 1 were considered to act preferentially on the resistant strain. Based on each inhibitor’s antiparasitic efficacy (IC50) and cell toxicity (CC50), selectivity indices (SI) were calculated [SI = CC50 (RAW)/IC50 (Parasites)]. Samples were classified as poorly toxic to RAW cells if their SI values were greater than 10 [70].

[2] = test system: chloroquine-sensitive 3D7 strain of Plasmodium falciparum (Pf3D7); assay: Antiplasmodial SYBR Green I fluorescence assay, Pf3D7 strain; type: cell-based; details: read-out: Antiplasmodial Activity Pf3D7 IC50 ± SD
Source text: (§2) The parasite strains used in this study are continuously cultured at the Antimicrobial and Biocontrol Agents Unit of the University of Yaoundé I, and were graciously provided by BEI Resources (https://www.beiresources.org (accessed on 16 February 2019)). They comprise the Leishmania donovani strain (1S(MHOM/SD/62/1S), the multiresistant (PfDd2), and the chloroquine-sensitive (Pf3D7-(MRA-102)) strains of Plasmodium falciparum. RPMI 1640 media supplemented with 0.2% sodium bicarbonate (Sigma Aldrich, Billings, MT, USA), 0.5% Albumax II (Gibco), 1% hypoxanthine 100X (Gibco, Billings, MT, USA), 25 mM HEPES, and 0.04% gentamicin (Sigma Aldrich) was used to sustain P. falciparum strains in sterile petri dishes. Fresh red blood cells from healthy O^+ human volunteers were also added to the medium. These cells were suspended at 4% hematocrit (v/v) and incubated at 37 °C in a humidified environment with 5% CO2. To regularly maintain the culture, fresh medium was added to the culture every day. Thin blood smears stained with 10% Giemsa were used to microscopically monitor cell-cycle transition and parasitemia under immersion oil.
(§3) The antiplasmodial efficacy of the samples was evaluated using the SYBR Green I-based fluorescence assay, as previously reported by Smilkstein et al., on a sorbitol-synchronized ring stage culture of Plasmodium falciparum (PfDd2 and Pf3D7 strains). The test relies on the development of intense fluorescence following SYBR green binding to the exposed DNA found in wells containing healthy cells. Ninety microliters of parasites prepared with 1% hematocrit and 2% parasitemia and 10 μL of test sample extracts, fractions, isolated chemicals, chloroquine, and artemisinin were each added in triplicate into wells of a flat-bottomed microplate. The final test concentration values for the samples varied from 50 μg/mL-0.08 μg/mL and 100 μg/mL-0.16 μg/mL for extract/fractions. Following a 72 h incubation at 37 °C, 100 μL of SYBR Green I solution prepared with lysis buffer (0.2 μL of 10,000 SYBR Green I per mL of lysis buffer) made of EDTA (5 mM), Tris (20 mM; pH 7.5), Triton X-100 (0.08%; v/v), and saponin (0.008%; m/v) was added to each well. Fluorescence measurements were taken using an Infinite M200 microplate reader (Tecan, MT, USA) at emission and excitation wavelengths of 538 and 485 nm, respectively.
as §1

[3] = Cytotoxicity assay (resazurin) on RAW 264.7 macrophages; type: cell-based, murine; details: mouse
Description: The murine macrophage RAW 264.7 cell line was grown in DMEM (Dulbecco’s modified Eagle’s medium) containing 1% penicillin-streptomycin, 1% nonessential amino acids (NEA), and 10% HIFBS at 37 °C, and 5% CO2 in a humidified environment. A reverse Etaluma fluorescence microscope was used to view the cells every day, and the growth media was replaced every 72 h. At 80% confluence, cells were isolated using 0.25% Trypsine-EDTA (Gibco, MT, USA).
The murine macrophages, RAW 264.7 cells, were plated into a 96-well cell culture treated flat-bottomed plate ([…], Inc., Newton, NC 28658, USA) at a density of 10 × 10^4 cells/100 μL/well and incubated overnight to enable cell adhesion. A fresh complete medium containing serially diluted concentrations of crude extract, fractions, and compounds was used to replace the previous medium. The final assay concentration values for extracts/fractions and compounds varied from 400 μg/mL to 0.8 μg/mL and 100–0.16 μg/mL, respectively. Podophyllotoxin (Sigma-Aldrich, Munich, Germany) was used as a positive control at a maximum dose of 10 μM. After 48 h of incubation, 10 μL of resazurin solution (0.15 mg/mL dissolved in PBS) was added to each well, and the plates were incubated for an additional 4 h. Fluorescence data were finally recorded with a Magellan Infinite M200 plate reader (Tecan, Germany) at excitation and emission wavelengths of 530 nm and 590 nm, respectively.
as §1

[4] = test system: multidrug-resistant Dd2 strain of Plasmodium falciparum (PfDd2); assay: Antiplasmodial SYBR Green I fluorescence assay, PfDd2 strain; type: cell-based; details: Plasmodium falciparum
Source text: as §2, §3, §1

[5] = test system: chloroquine-sensitive/sulfadoxine-resistant Pf3D7 strain; design: method as in PMID 36837917; details: in vitro; isolated from Trichilia monadelpha; cited from earlier work
[6] = test system: promastigote; design: method as in PMID 15070160; details: from Pourouma guianensis; cited from earlier work
[7] = test system: amastigote; design: method as in PMID 15070160; details: from Pourouma guianensis; cited from earlier work
[8] = test system: Leishmania amazonensis; design: method as in PMID 21343887; details: cited from earlier work
[9] = test system: clinical isolate of P. falciparum; design: method as in doi:10.1080/13880200601009123; details: cited from earlier work
[10] = test system: amastigote forms of Leishmania donovani; design: method as in doi:10.1076/phbi.39.4.284.5921; details: isolated from Khaya senegalensis; cited from earlier work
[11] = L. donovani promastigotes, 28 °C
[12] = 3D7, Pf3D7 strain, ring stage, 72 h
[13] = DD2, 72 h, read-out: Antiplasmodial Activity PfDd2 IC50 ± SD, PfDd2 strain, ring stage, 72 h
[14] = DD2, PfDd2 strain, ring stage, 72 h, read-out: Antiplasmodial Activity PfDd2 IC50 ± SD
[15] = RAW 264.7 macrophages, 48 h incubation, resazurin, read-out: Cytotoxicity on RAW 264.7 Cells CC50 ± SD
[16] = RAW 264.7 macrophage cells, RAW 264.7 macrophages, 48 h incubation, resazurin, read-out: Cytotoxicity on RAW 264.7 Cells CC50 ± SD

Row | SMILES | IC50 [1, 11] [µg/mL] | Antileishmanial Selectivity (SI) [1] | IC50 [2, 12] [µg/mL] | CC50 at 48 h [3] [µg/mL] | IC50 [4, 13] [µg/mL] | IC50 [4, 14] [µg/mL] | further results
1 | C=C(C)[C@@H]1CC[C@]2(C(=O)O)CC[C@]3(C)[C@H](CC[C@@H]4[C@@]5(C)C[C@@H](O)[C@H](O)C(C)(C)[C@@H]5CC[C@]43C)[C@@H]12 [Alphitolic acid (3), alphitolic acid] | 17.1 ± 0.9 (≈ 36.2 µM) | 2.09 | 146.77 ± 0.13 (≈ 310 µM) | 35.8 (≈ 75.6 µM) | > 200 |  | 
2 | C[C@@H]1[C@H](O)[C@@H](C)/C=C/C=C/C=C/C=C/C=C/C=C/C=C/[C@H](O[C@@H]2O[C@H](C)[C@@H](O)[C@H](N)[C@@H]2O)C[C@@H]2O[C@](O)(C[C@@H](O)C[C@@H](O)[C@H](O)CC[C@@H](O)C[C@@H](O)CC(=O)O[C@H]1C)C[C@H](O)[C@H]2C(=O)O [Amphotericin B, amphotericin B, reference compound] | 3.14 ± 0.46 (≈ 3.4 µM) |  |  |  |  |  | 
3 | C[C@@H]1CC[C@H]2[C@@H](C)C(=O)O[C@@H]3O[C@@]4(C)CC[C@@H]1[C@]32OO4 [Artemesin, artemisinin, reference compound] |  |  | 0.02 (≈ 0.0708 µM) |  |  | 0.024 ± 0.24 (≈ 0.085 µM) | 
4 | COc1ccc(-c2cc(=O)c3c(O)c(OC)c(OC)cc3o2)cc1OC [Belamcanidin (8), Belamcanidin] | 22.21 ± 0.08 (≈ 62 µM) | >18.013 | 104.9 ± 0.39 (≈ 293 µM) | > 400 |  | 50.97 ± 0.37 (≈ 142 µM) | 
5 | CC1(C)CC[C@]2(C(=O)O)CC[C@]3(C)C(=CCC4[C@@]5(C)C[C@@H](O)[C@H](O)C(CO)(CO)C5CC[C@]43C)C2[C@@H]1O (stereo partly drawn) [Bellericagenin B (2), bellericagenin B] | 6.5 ± 0.01 (≈ 12.5 µM) | >61.54 | 107.7 ± 0.37 (≈ 207 µM) | > 400 |  | 34.02 ± 0.09 (≈ 65.3 µM) | 
6 | CCN(CC)CCCC(C)Nc1ccnc2cc(Cl)ccc12 (stereo not drawn) [Chloroquine, Chloroquine phosphate, reference compound] |  |  |  |  |  |  | IC50 ([2]; 3D7, 72 h): 0.022 ± 0.25 µg/mL; IC50 ([4]; DD2, 72 h, read-out: Antiplasmodial Activity PfDd2 IC50 ± SD): 0.085 ± 0.01 µg/mL
7 | COC(=O)[C@H](O)[C@@H]1[C@@]2(C)[C@H]3CC[C@@]4(C)[C@H](c5ccoc5)OC(=O)C[C@@]45O[C@H]4C(=O)[C@@]1(C)C[C@]2(OC(C)=O)[C@@H]4[C@@]35O [Khayanolide E (6), khayanolide E] | 81.73 ± 0.12 (≈ 146 µM) | 0.99 | 56.98 ± 0.08 (≈ 102 µM) | 81.6 (≈ 146 µM) |  | 14.03 ± 0.06 (≈ 25.1 µM) | IC50 against Pf3D7 [5]: 1.68 µg/mL (≈ 3.01 µM)
8 | C=C1[C@@H]2CC[C@@]3(C)[C@H](c4ccoc4)OC(=O)C[C@]13O[C@H]1CC(=O)C(C)(C)[C@H](CC(=O)OC)[C@]12C [Methylangolensate (4), methyl angolensate] |  | 2.81 |  |  | 20.5 ± 0.45 (≈ 43.6 µM) |  | IC50 [1]: 25.8 ± 0.27 µg/mL (≈ 54.9 µM); IC50 ([2]; 3D7, 72 h): 165.19 ± 0.06 µg/mL (≈ 351 µM); CC50 at 48 h [3, 15]: 72.7 µg/mL (≈ 155 µM)
9 | CC1(C)CC[C@]2(C(=O)O)CC[C@]3(C)C(=CC[C@@H]4[C@@]5(C)CC[C@H](O)C(C)(C)[C@@H]5CC[C@]43C)[C@@H]2C1 [Oleanolic acid (7), oleanolic acid] | 30.6 ± 0.67 (≈ 67.1 µM) | ˃13.06 | 93.58 ± 0.92 (≈ 205 µM) |  | 43.6 ± 0.73 (≈ 95.4 µM) |  | IC50, antipromastigote effect [6]: 10 µg/mL (≈ 21.9 µM); IC50, antiamastigote inhibitory activity [7]: 27 µg/mL (≈ 59.1 µM); IC50, growth of Leishmania amazonensis [8]: 439.5 µg/mL; IC50, growth of clinical isolate of P. falciparum [9]: 15.2 µg/mL; CC50 at 48 h [3, 16]: > 400 µg/mL
10 | COc1cc([C@@H]2c3cc4c(cc3[C@H](O)[C@H]3COC(=O)[C@H]23)OCO4)cc(OC)c1OC [Podophyllotoxin, reference compound] |  |  |  |  |  |  | CC50 at 48 h [3, 15]: 0.71 ± 0.2 µg/mL (≈ 1.71 µM)
11 | C=C1C2C(OC3CC(=O)OC4(C)COC(=O)CC4C32C)C(OC(=O)C(O)C(C)CC)C2(C)C(c3ccoc3)CC(=O)C12O (stereo not drawn) [Rohituka-3 (5), rohituka-3] | 23.35 ± 0.21 (≈ 38.9 µM) | >17.13 | 68 ± 0.02 (≈ 113 µM) |  | 15.9 ± 0.33 (≈ 26.5 µM) |  | CC50 at 48 h [3, 16]: > 400 µg/mL
12 | Oc1cc(O)c2c(c1)O[C@H](c1ccc(O)c(O)c1)[C@@H](O)[C@@H]2c1c(O)cc2c(c1O)C[C@H](O)[C@@H](c1ccc(O)c(O)c1)O2 [catechin-(4a,6)-catechin] |  |  |  |  |  |  | IC50 against amastigote forms of Leishmania donovani [10]: 3.85 µg/mL
13 | Oc1cc(O)c2c(c1)O[C@H](c1ccc(O)c(O)c1)[C@@H](O)[C@@H]2c1c(O)cc(O)c2c1O[C@H](c1ccc(O)c(O)c1)[C@@H](O)C2 [catechin-(4a,8)-catechin] |  |  |  |  |  |  | IC50 against amastigote forms of Leishmania donovani [10]: 3.98 µg/mL
